Data: patent publication US11590116B2 (THERAVANCE BIOPHARMA R&D IP, LLC, priority 2019, dated 2023)

Key:
[1] = tested on: TGF-β-stimulated SMAD3 phosphorylation in BEAS-2B cells; experiment: Cellular ALK5 potency assay, inhibition of TGF-β stimulated pSMAD3 formation in BEAS-2B cells; type: cell-based; conditions: Homo sapiens; inhibition of TGF-β stimulated pSMAD3 formation, BEAS-2B cells; read-out: BEAS2B pIC50 (converted)
Procedure, shortened: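 BEAS-2B human lung epithelial cells pre-treated 1 h at 37° C with compound in HBSS/25 mM HEPES/1% BSA, then stimulated 30 min with 10 ng/mL TGF-β (final). Lysates assayed for pSMAD3 by AlphaLISA; pIC50 from dose-dependent change versus stimulated untreated cells.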

[2] = molecular target: T1, recombinant human ALK5 (TGF-βR1) protein (Homo sapiens, UniProt P36897); experiment: Biochemical ALK5 (TGF-βR1) assay to measure pKi (LANCE Ultra ULight kinase assay); conditions: apparent pKi from pIC50 by Cheng-Prusoff, read-out: ALK5 pKi (converted)
T1 construct: purchased Life Technologies PR9075A
T1 sequence (P36897 34-503): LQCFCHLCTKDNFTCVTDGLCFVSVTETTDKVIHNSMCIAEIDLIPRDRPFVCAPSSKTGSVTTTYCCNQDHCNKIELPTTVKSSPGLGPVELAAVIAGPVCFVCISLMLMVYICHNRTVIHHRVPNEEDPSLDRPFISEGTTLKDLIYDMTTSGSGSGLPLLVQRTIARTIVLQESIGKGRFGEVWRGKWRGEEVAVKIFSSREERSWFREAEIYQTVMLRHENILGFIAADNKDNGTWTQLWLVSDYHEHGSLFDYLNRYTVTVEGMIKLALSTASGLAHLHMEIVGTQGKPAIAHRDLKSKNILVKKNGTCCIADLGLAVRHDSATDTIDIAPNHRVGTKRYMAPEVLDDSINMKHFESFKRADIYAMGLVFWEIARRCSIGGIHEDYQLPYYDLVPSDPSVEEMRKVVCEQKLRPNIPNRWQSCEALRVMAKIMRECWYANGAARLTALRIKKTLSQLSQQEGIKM
Procedure, shortened: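 After a 60 min room-temperature preincubation of ALK5 with compound, phosphorylation proceeds 60 min at 37 °C on ATP addition (125 μM as 5× stock). Detection: Eu-labelled phospho-Thr1342 Topo IIα antibody in EDTA buffer, pH 7.0; emission 665 nm.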

Row | Structure (SMILES) | IC50 [1] [nM] | Ki [2] [nM]
1 | Cc1cccc(-c2[nH]cnc2-c2ccc3ncc(C(=O)OC[C@H]4CCCCN4)cc3c2)n1 [Compound 884, (R)-piperidin-2-ylmethyl 6-(5-(6-methylpyridin-2-yl)-1H-imidazol-4-yl)quinoline-3-carboxylate] | 25.1 to 158 | 0.398 to 3.16
2 | Cc1cccc(-c2[nH]cnc2-c2ccc3ncc(-c4cc(C(=O)O[C@H]5CCNC5)cs4)cc3c2)n1 [Compound 885, [(3S)-pyrrolidin-3-yl] 5-[6-[5-(6-methyl-2-pyridyl)-1H-imidazol-4-yl]-3-quinolyl]thiophene-3-carboxylate] | 25.1 to 158 | < 0.0316
3 | Cc1cccc(-c2[nH]cnc2-c2ccc3ncc(C(=O)OCCN4C[C@@H](C)N[C@@H](C)C4)cc3c2)n1 [Compound 886, 2-((3S,5R)-3,5-dimethylpiperazin-1-yl)ethyl 6-(5-(6-methylpyridin-2-yl)-1H-imidazol-4-yl)quinoline-3-carboxylate] | 25.1 to 158 | 0.0398 to 0.316
4 | Cc1cccc(-c2[nH]cnc2-c2ccc3ncc(C(=O)OCCN4CCCCC4)cc3c2)n1 [Compound 887, 2-(piperidin-1-yl)ethyl 6-(5-(6-methylpyridin-2-yl)-1H-imidazol-4-yl)quinoline-3-carboxylate] | 25.1 to 158 | 0.0398 to 0.316
5 | Cc1cccc(-c2[nH]cnc2-c2ccc3ncc(C(=O)OCCN4CC5(CCCNC5)C4)cc3c2)n1 [Compound 890, 2-(2,6-diazaspiro[3.5]nonan-2-yl)ethyl 6-(5-(6-methylpyridin-2-yl)-1H-imidazol-4-yl)quinoline-3-carboxylate] | 200 to 1260 | 0.398 to 3.16
6 | Cc1cccc(-c2[nH]cnc2-c2ccc3ncc(C(=O)OCCN4CC5(CCNCC5)C4)cc3c2)n1 [Compound 891, 2-(2,7-diazaspiro[3.5]nonan-2-yl)ethyl 6-(5-(6-methylpyridin-2-yl)-1H-imidazol-4-yl)quinoline-3-carboxylate] | 200 to 1260 | 0.0398 to 0.316
7 | Cc1cccc(-c2[nH]cnc2-c2ccc3ncc(C(=O)OCCN4CCC5(CC4)CNC5)cc3c2)n1 [Compound 892, 2-(2,7-diazaspiro[3.5]nonan-7-yl)ethyl 6-(5-(6-methylpyridin-2-yl)-1H-imidazol-4-yl)quinoline-3-carboxylate] | 200 to 1260 | 0.0398 to 0.316
8 | Cc1cccc(-c2[nH]cnc2-c2ccc3ncc(C(=O)OCCN4CC5(CNC5)C4)cc3c2)n1 [Compound 894, 2-(2,6-diazaspiro[3.3]heptan-2-yl)ethyl 6-(5-(6-methylpyridin-2-yl)-1H-imidazol-4-yl)quinoline-3-carboxylate] | 200 to 1260 | 0.398 to 3.16
9 | Cc1cccc(-c2[nH]cnc2-c2ccc3ncc(C(=O)OCCN4CCC5(CCNCC5)C4)cc3c2)n1 [Compound 896, 2-(2,8-diazaspiro[4.5]decan-2-yl)ethyl 6-(5-(6-methylpyridin-2-yl)-1H-imidazol-4-yl)quinoline-3-carboxylate] | 200 to 1260 | 0.0398 to 0.316
10 | Cc1cccc(-c2[nH]cnc2-c2ccc3ncc(C(=O)OCCCN4CCNCC4)cc3c2)n1 [Compound 897, 3-(piperazin-1-yl)propyl 6-(5-(6-methylpyridin-2-yl)-1H-imidazol-4-yl)quinoline-3-carboxylate] | 25.1 to 158 | 0.0398 to 0.316
11 | Cc1cccc(-c2[nH]cnc2-c2ccc3ncc(C(=O)OCCCN4C[C@@H](C)N[C@@H](C)C4)cc3c2)n1 [Compound 898, 3-((3S,5R)-3,5-dimethylpiperazin-1-yl)propyl 6-(5-(6-methylpyridin-2-yl)-1H-imidazol-4-yl)quinoline-3-carboxylate] | 25.1 to 158 | 0.0398 to 0.316
12 | Cc1cccc(-c2[nH]cnc2-c2ccc3ncc(C(=O)OCCCN4CC5(CCNCC5)C4)cc3c2)n1 [Compound 903, 3-(2,7-diazaspiro[3.5]nonan-2-yl)propyl 6-(5-(6-methylpyridin-2-yl)-1H-imidazol-4-yl)quinoline-3-carboxylate] | 200 to 1260 | 0.0398 to 0.316
13 | Cc1cccc(-c2[nH]cnc2-c2ccc3ncc(C(=O)OCCCN4CCC5(CC4)CNC5)cc3c2)n1 [Compound 904, 3-(2,7-diazaspiro[3.5]nonan-7-yl)propyl 6-(5-(6-methylpyridin-2-yl)-1H-imidazol-4-yl)quinoline-3-carboxylate] | 200 to 1260 | 0.0398 to 0.316
14 | Cc1cccc(-c2[nH]cnc2-c2ccc3ncc(-c4ccc(C(=O)O)s4)cc3c2)n1 [Compound 1005, 5-(6-(5-(6-methylpyridin-2-yl)-1H-imidazol-4-yl)quinolin-3-yl)thiophene-2-carboxylic acid] | 1580 to 10000 | 0.0398 to 0.316
15 | Cc1cccc(-c2[nH]cnc2-c2ccc3ncc(-c4ccc(C(=O)OC5CNC5)s4)cc3c2)n1 [Compound 1006, azetidin-3-yl 5-(6-(5-(6-methylpyridin-2-yl)-1H-imidazol-4-yl)quinolin-3-yl)thiophene-2-carboxylate] | 25.1 to 158 | 0.0398 to 0.316
16 | Cc1cccc(-c2[nH]cnc2-c2ccc3ncc(-c4ccc(C(=O)OCC5CNC5)s4)cc3c2)n1 [Compound 1007, azetidin-3-ylmethyl 5-(6-(5-(6-methylpyridin-2-yl)-1H-imidazol-4-yl)quinolin-3-yl)thiophene-2-carboxylate] | 25.1 to 158 | 0.0398 to 0.316
17 | Cc1cccc(-c2[nH]cnc2-c2ccc3ncc(-c4ccc(C(=O)O[C@H]5CCN(C)C5)s4)cc3c2)n1 [Compound 1008, (S)-1-methylpyrrolidin-3-yl 5-(6-(5-(6-methylpyridin-2-yl)-1H-imidazol-4-yl)quinolin-3-yl)thiophene-2-carboxylate] | 25.1 to 158 | 0.0398 to 0.316
18 | Cc1cccc(-c2[nH]cnc2-c2ccc3ncc(-c4ccc(C(=O)O[C@@H]5CCN(C)C5)s4)cc3c2)n1 [Compound 1009, (R)-1-methylpyrrolidin-3-yl 5-(6-(5-(6-methylpyridin-2-yl)-1H-imidazol-4-yl)quinolin-3-yl)thiophene-2-carboxylate] | 25.1 to 158 | 0.0398 to 0.316
19 | Cc1cccc(-c2[nH]cnc2-c2ccc3ncc(-c4ccc(C(=O)OC5CCNCC5)s4)cc3c2)n1 [Compound 1010, piperidin-4-yl 5-(6-(5-(6-methylpyridin-2-yl)-1H-imidazol-4-yl)quinolin-3-yl)thiophene-2-carboxylate] | 25.1 to 158 | 0.0398 to 0.316
20 | Cc1cccc(-c2[nH]cnc2-c2ccc3ncc(-c4ncc(C(=O)O)s4)cc3c2)n1 [Compound 1017, 2-(6-(5-(6-methylpyridin-2-yl)-1H-imidazol-4-yl)quinolin-3-yl)thiazole-5-carboxylic acid] | 1580 to 10000 | 0.0398 to 0.316
21 | Cc1cccc(-c2[nH]cnc2-c2ccc3ncc(-c4ncc(C(=O)OC5CNC5)s4)cc3c2)n1 [Compound 1018, azetidin-3-yl 2-(6-(5-(6-methylpyridin-2-yl)-1H-imidazol-4-yl)quinolin-3-yl)thiazole-5-carboxylate] | 25.1 to 158 | 0.0398 to 0.316
22 | Cc1cccc(-c2[nH]cnc2-c2ccc3ncc(-c4csc(C(=O)O[C@H]5CCNC5)n4)cc3c2)n1 [Compound 1024, [(3S)-pyrrolidin-3-yl] 4-[6-[5-(6-methyl-2-pyridyl)-1H-imidazol-4-yl]-3-quinolyl]thiazole-2-carboxylate] | 25.1 to 158 | 0.0398 to 0.316
